Where “and” joins values, the source holds several entries; their conditions need not be identical. Identical values can stand only once.
Key:
[1] = in methanol; Stefan et al. 1992; cited from earlier work
[2] = NIR fluorescence emission spectrum of dye compounds; type: physicochemical; settings: for fluorescence emission peak in the NIR region: PBS 7.4; for λmax: Table 1, λmax (fluorescence emission)
Description: (§1) Compound 1 (which generates the dye compound QCy7 deprotonation) was obtained as an orange crystalline powder. FIGS. 4A and 4B present the UV-Vis spectrum of Compound 1 (FIG. 4A), compared to that of the acetate Compound 3 (FIG. 4B). […] The obtained large stokes shift between the excitation and the emission wavelengths of about 150 nm is a desirable feature for fluorescence probes, which assists in increasing the signal-to-noise ratio.
(§2) FIG. 5 presents the data obtained for fluorescence intensity vs. wavelength of standard sample (Cresyl violet; FIG. 5A), and test sample (QCy7; FIG. 5B), at the indicated concentrations. The measurements were performed in a 1 cm cuvette using Fluoromax-3 fluorometer; at an excitation wavelength of 560 nm. Cresyl violet was dissolved in methanol and Compound 1 in PBS 7.4 (just generating QCy7).
(§3) FIG. 8 presents the data obtained for fluorescence intensity vs. wavelength of standard sample (QCy7; FIG. 8A), and test sample (Sulfo-QCy7, generated from Compound 9; FIG. 8B), at the indicated concentrations. The measurements were performed at a 96-wells plate reader using Fluoromax-3 fluorometer; at an excitation wavelength of 560 nm. Both samples were dissolved in PBS 7.4.

[3] = Fluorescence quantum yield calculation against a reference dye; type: physicochemical; settings: PBS 7.4
Description: Cresyl-violet-perchlorate (as presented hereinbelow) was chosen as a reference compound for the determination of QCy7 quantum yield.
as §2
Conversion to the absolute quantum yield is achieved through the following equation: ΦX=ΦST(GradX/GradST)(η^2X/η^2ST) where the subscripts ST and X denote standard and test respectively, Φ is the fluorescence quantum yield, Grad the gradient from the plot of integrated fluorescence intensity vs. absorbance (see, FIG. 6), and η the refractive index of the solvents. ΦCresyl-violet=0.55 [Stefan et al. ([…]) J. Phys. Chem. 86, 1738-1742].
QCy7 was chosen as a reference compound for the determination of Sulfo-QCy7 quantum yield.
as §3
The absolute quantum yield was calculated as described hereinabove and found to be: […]

[4] = Extinction coefficient calculation (absorbance vs concentration); type: physicochemical
Description: FIG. 7 presents linear plots of QCy7 as measured at 1 cm cuvette, at the indicated concentrations in PBS 7.4, at the maximum wavelength of QCy7 (560 nm). εQCy7=26848[M^−1cm^−1]
FIG. 10 presents linear plots of Sulfo-QCy7 as measured at 1 cm cuvette, at the indicated concentrations in PBS 7.4, at the maximum wavelength of Sulfo-QCy7 (590 nm). εSulfo-QCy7=52235[M^−1cm^−1]

HeLa cells [5] = test: Cell permeability, confocal imaging of HeLa cells; type: cell-based
Description: HeLa cells were incubated overnight with Compound 9 in PBS 7.4, and the cells was thereafter imaged by confocal microscope.
A colocalization assay of Compound 25 was conducted with the lysosome marker lysosensor. Sample was excited with a 561 nm laser line and fluorescence acquired from 570 nm to 800 nm.

[6] = NIR fluorescence emission spectrum of dye compounds; type: physicochemical; settings: PBS 7.4 [50 μM], excitation 570 nm, cutting filter >690 nm
[7] = UV-Vis absorption spectrum of dye compounds; type: physicochemical
Description: as §1
Compound 14 is composed from a phenol latent donor and two different acceptors; a picolinium moiety and an indolium moiety (see, Scheme 3). Deprotonation of the phenolic dye leads to formation of new donor-acceptor pair fluorochrome.
Compound 18 is composed of a phenol latent donor and two identical acceptors based on a picolinium moiety (see, Scheme 4). Deprotonation of the phenolic form leads to formation of new donor-acceptor pair fluorochrome.
Compound 25 is composed of a phenol latent donor and three acceptors; two picolinium moieties and one indolium moiety (see, Scheme 5). Deprotonation of the phenolic compound leads to formation of three resonance donor-two-acceptor structures of new fluorochrome.
The chemical 2D structures and spectroscopic data obtained for exemplary dye molecules according to embodiments of the present invention are presented in Table 1.

[8] = Aqueous stability in PBS 7.4 at 37° C., NIR emission over 72 hours; type: physicochemical; settings: PBS 7.4 [25 μM]
Description: The aqueous stability of the cyanine-like dye compound presented herein was tested and compared to that of the cyanine molecule Cy7.
All tested compounds were incubated in PBS 7.4 [25 μM], at 37° C., and their NIR fluorescent emission was monitored over 72 hours. FIG. 15 presents the normalized intensity of NIR fluorescent emission of dyes generated from Compound 9 (green circles; Sulfo-QCy7), Compound 14 (blue diamonds), Compound 18 (red squares), Compound 25 (orange triangles) and Compound 1 (blank navy squares; QCy7) as a function of incubation time.

[9] = pKa measurement by UV-Vis absorbance as a function of pH; type: physicochemical; settings: buffers at the indicated pH; 50 μM in buffers, phenol form
Description: The pKa values of exemplary compounds according to some embodiments of the present invention, Compounds 14, 18 and 25, was measured by monitoring their UV-Vis absorbance as a function of the environment pH. The tested compounds, at a concentration of 50 μM were dissolved in the respective buffers at the indicated pH and their absorbance was measured.

HeLa cells [10] = test: Two-photon excitation with NIR laser in HeLa cells; type: cell-based; settings: incubated with HeLa cells and PBS 7.4
Description: Fluorescent dyes, which absorb at wavelengths of 350-550 nm, can be excited in NIR region with a two-photon laser.
Compound 25 was incubated with HeLa cells and PBS 7.4.

Structure (SMILES) | fluorescence quantum yield of reference [1] | fluorescence emission peak in the NIR region [2] [nm] | λmax [2] [nm] | quantum yield [3] [%] | extinction coefficient ε ([4]; PBS 7.4, 1 cm cuvette, at maximum wavelength (QCy7 560 nm, Sulfo-QCy7 590 nm)) [M⁻¹ cm⁻¹] | extinction coefficient ([4]; rounded value) | fluorescence inside vs outside the cells (HeLa cells [5]; HeLa cells incubated overnight, PBS 7.4) | appearance under NIR imaging camera [6] | UV-Vis absorption peak maximum ([7]; PBS 7.4) | λmax ([7]; Table 1, first λmax column (absorption peaks)) [nm] | aqueous stability compared with Cy7 [8] | pKa [9] | cellular localization (colocalization with lysosensor) (HeLa cells [5]; HeLa cells, excitation 561 nm, 570-800 nm) | chemical stability in cell-medium (HeLa cells [5]; overnight incubation with cells) | NIR fluorescence under acidic condition of the lysosome (HeLa cells [5]; pH of about 5) | two-photon excitation spectrum wavelengths (HeLa cells [10])
N=c1cc2oc3cc(N)ccc3nc-2c2ccccc12.[O-][Cl+3]([O-])([O-])O [Cresyl-violet, Cresyl-violet-perchlorate] | 0.55 |  |  |  |  |  |  |  |  |  |  |  |  |  |  | 
CC1(C)C(/C=C/c2ccc(O)c(/C=C/C3=[N+](CCCS(=O)(=O)[O-])c4ccccc4C3(C)C)c2)=[N+](CCCS(=O)(=O)[O-])c2ccccc21 [Compound 9] |  | 720 | 710 | 16 | 52235 | 52,000 mol^−1 cm^−1 | higher fluorescence inside the cells | exhibits well-observed NIR fluorescence |  |  |  |  |  |  |  | 
C[n+]1ccc(/C=C/c2cc(/C=C/C3=[N+](CCCS(=O)(=O)O)c4ccccc4C3(C)C)cc(/C=C/c3cc[n+](C)cc3)c2O)cc1 [Compound 25] |  | 680 | 650 | 16 |  |  |  |  | 330 nm and 550 nm | 550 | increase aqueous stability than that of Cy7 | 5.4 | accumulation of the dye in the lisosomal vesicles indicates cell-penetration through endocytosis mechanism | chemical stability after overnight in cell-medium | emitted NIR fluorescence even under the acidic condition of the lysosome | 800-1000 nm

Reference: patent publication US10071983B2, “Activatable fluorogenic compounds and uses thereof as near infrared probes” (Ramot at Tel-Aviv University Ltd., priority 2011, dated 2018)
